Test results: the NIST ThermoML archive (doi:10.1021/je060179e)
Numbers after ± are expanded uncertainties.

Assay: xn = mol fraction of the nth substance listed
Settings: for mass density: 101 kPa, Liquid

CCCCCCO [hexan-1-ol] + CCCCCCC
surface tension liquid-gas (288.15 K, x2 = 0.0507): 25.6 ± 0.32 mN/m | surface tension liquid-gas (288.15 K, x2 = 0.1018): 25.01 ± 0.31 mN/m | surface tension liquid-gas (288.15 K, x2 = 0.2001): 24.02 ± 0.31 mN/m | surface tension liquid-gas (288.15 K, x2 = 0.3087): 23.22 ± 0.3 mN/m | surface tension liquid-gas (288.15 K, x2 = 0.3949): 22.55 ± 0.29 mN/m | surface tension liquid-gas (288.15 K, x2 = 0.5021): 22.16 ± 0.29 mN/m | surface tension liquid-gas (288.15 K, x2 = 0.6053): 21.8 ± 0.28 mN/m | surface tension liquid-gas (288.15 K, x2 = 0.7097): 21.46 ± 0.28 mN/m | surface tension liquid-gas (288.15 K, x2 = 0.8055): 21.2 ± 0.28 mN/m | surface tension liquid-gas (288.15 K, x2 = 0.9066): 21.05 ± 0.28 mN/m | surface tension liquid-gas (288.15 K, x2 = 0.9517): 20.94 ± 0.27 mN/m | mass density (288.15 K, x2 = 0.05): 814.76 ± 0.58 kg/m3 | mass density (288.15 K, x2 = 0.0976): 807.66 ± 0.58 kg/m3 | mass density (288.15 K, x2 = 0.3197): 775.17 ± 0.58 kg/m3 | mass density (288.15 K, x2 = 0.3943): 764.62 ± 0.58 kg/m3 | mass density (288.15 K, x2 = 0.5088): 748.93 ± 0.59 kg/m3 | mass density (288.15 K, x2 = 0.6171): 734.53 ± 0.6 kg/m3 | mass density (288.15 K, x2 = 0.7045): 723.24 ± 0.61 kg/m3 | mass density (288.15 K, x2 = 0.808): 710.42 ± 0.62 kg/m3 | mass density (288.15 K, x2 = 0.9072): 698.54 ± 0.63 kg/m3 | surface tension liquid-gas (293.15 K, x2 = 0.0494): 25.01 ± 0.32 mN/m | surface tension liquid-gas (293.15 K, x2 = 0.1036): 24.45 ± 0.31 mN/m | surface tension liquid-gas (293.15 K, x2 = 0.201): 23.47 ± 0.3 mN/m | surface tension liquid-gas (293.15 K, x2 = 0.3037): 22.65 ± 0.29 mN/m | surface tension liquid-gas (293.15 K, x2 = 0.4422): 21.75 ± 0.29 mN/m | surface tension liquid-gas (293.15 K, x2 = 0.5056): 21.54 ± 0.28 mN/m | surface tension liquid-gas (293.15 K, x2 = 0.5979): 21.26 ± 0.28 mN/m | surface tension liquid-gas (293.15 K, x2 = 0.6999): 20.8 ± 0.28 mN/m | surface tension liquid-gas (293.15 K, x2 = 0.8091): 20.54 ± 0.27 mN/m | surface tension liquid-gas (293.15 K, x2 = 0.9061): 20.43 ± 0.27 mN/m | surface tension liquid-gas (293.15 K, x2 = 0.951): 20.29 ± 0.27 mN/m | mass density (293.15 K, x2 = 0.05): 811.17 ± 0.58 kg/m3 | mass density (293.15 K, x2 = 0.0976): 804.03 ± 0.58 kg/m3 | mass density (293.15 K, x2 = 0.3197): 771.33 ± 0.58 kg/m3 | mass density (293.15 K, x2 = 0.3943): 760.72 ± 0.59 kg/m3 | mass density (293.15 K, x2 = 0.5088): 744.95 ± 0.59 kg/m3 | mass density (293.15 K, x2 = 0.6171): 730.47 ± 0.6 kg/m3 | mass density (293.15 K, x2 = 0.7045): 719.14 ± 0.61 kg/m3 | mass density (293.15 K, x2 = 0.808): 706.27 ± 0.62 kg/m3 | mass density (293.15 K, x2 = 0.9072): 694.33 ± 0.63 kg/m3 | surface tension liquid-gas (298.15 K, x2 = 0.0497): 24.61 ± 0.31 mN/m | surface tension liquid-gas (298.15 K, x2 = 0.0987): 24.05 ± 0.31 mN/m | surface tension liquid-gas (298.15 K, x2 = 0.2023): 22.92 ± 0.3 mN/m | surface tension liquid-gas (298.15 K, x2 = 0.3096): 22.09 ± 0.29 mN/m | surface tension liquid-gas (298.15 K, x2 = 0.4078): 21.45 ± 0.28 mN/m | surface tension liquid-gas (298.15 K, x2 = 0.5054): 21.04 ± 0.28 mN/m | surface tension liquid-gas (298.15 K, x2 = 0.6099): 20.58 ± 0.28 mN/m | surface tension liquid-gas (298.15 K, x2 = 0.7075): 20.28 ± 0.27 mN/m | surface tension liquid-gas (298.15 K, x2 = 0.8127): 20.04 ± 0.27 mN/m | surface tension liquid-gas (298.15 K, x2 = 0.905): 19.93 ± 0.27 mN/m | surface tension liquid-gas (298.15 K, x2 = 0.9515): 19.74 ± 0.27 mN/m | mass density (298.15 K, x2 = 0.05): 807.56 ± 0.58 kg/m3 | mass density (298.15 K, x2 = 0.0976): 800.37 ± 0.58 kg/m3 | mass density (298.15 K, x2 = 0.3197): 767.46 ± 0.59 kg/m3 | mass density (298.15 K, x2 = 0.3943): 756.8 ± 0.59 kg/m3 | mass density (298.15 K, x2 = 0.5088): 740.94 ± 0.6 kg/m3 | mass density (298.15 K, x2 = 0.6171): 726.39 ± 0.61 kg/m3 | mass density (298.15 K, x2 = 0.7045): 715.01 ± 0.62 kg/m3 | mass density (298.15 K, x2 = 0.808): 702.07 ± 0.63 kg/m3 | mass density (298.15 K, x2 = 0.9072): 690.09 ± 0.64 kg/m3 | surface tension liquid-gas (303.15 K, x2 = 0.0488): 24.1 ± 0.31 mN/m | surface tension liquid-gas (303.15 K, x2 = 0.1027): 23.55 ± 0.3 mN/m | surface tension liquid-gas (303.15 K, x2 = 0.1865): 22.62 ± 0.3 mN/m | surface tension liquid-gas (303.15 K, x2 = 0.31): 21.59 ± 0.29 mN/m | surface tension liquid-gas (303.15 K, x2 = 0.4122): 20.97 ± 0.28 mN/m | surface tension liquid-gas (303.15 K, x2 = 0.5086): 20.49 ± 0.28 mN/m | surface tension liquid-gas (303.15 K, x2 = 0.6147): 20 ± 0.27 mN/m | surface tension liquid-gas (303.15 K, x2 = 0.7097): 19.78 ± 0.27 mN/m | surface tension liquid-gas (303.15 K, x2 = 0.8089): 19.54 ± 0.27 mN/m | surface tension liquid-gas (303.15 K, x2 = 0.9068): 19.26 ± 0.26 mN/m | surface tension liquid-gas (303.15 K, x2 = 0.9519): 19.13 ± 0.26 mN/m | mass density (303.15 K, x2 = 0.05): 803.92 ± 0.59 kg/m3 | mass density (303.15 K, x2 = 0.0976): 796.68 ± 0.59 kg/m3 | mass density (303.15 K, x2 = 0.3197): 763.56 ± 0.59 kg/m3 | mass density (303.15 K, x2 = 0.3943): 752.84 ± 0.6 kg/m3 | mass density (303.15 K, x2 = 0.5088): 736.9 ± 0.6 kg/m3 | mass density (303.15 K, x2 = 0.6171): 722.28 ± 0.61 kg/m3 | mass density (303.15 K, x2 = 0.7045): 710.84 ± 0.62 kg/m3 | mass density (303.15 K, x2 = 0.808): 697.85 ± 0.63 kg/m3 | mass density (303.15 K, x2 = 0.9072): 685.82 ± 0.64 kg/m3 | surface tension liquid-gas (308.15 K, x2 = 0.0428): 23.64 ± 0.31 mN/m | surface tension liquid-gas (308.15 K, x2 = 0.1025): 23.03 ± 0.3 mN/m | surface tension liquid-gas (308.15 K, x2 = 0.1986): 22 ± 0.29 mN/m | surface tension liquid-gas (308.15 K, x2 = 0.3055): 21.1 ± 0.28 mN/m | surface tension liquid-gas (308.15 K, x2 = 0.403): 20.52 ± 0.28 mN/m | surface tension liquid-gas (308.15 K, x2 = 0.498): 20.11 ± 0.27 mN/m | surface tension liquid-gas (308.15 K, x2 = 0.6165): 19.57 ± 0.27 mN/m | surface tension liquid-gas (308.15 K, x2 = 0.7042): 19.35 ± 0.27 mN/m | surface tension liquid-gas (308.15 K, x2 = 0.8118): 19.06 ± 0.26 mN/m | surface tension liquid-gas (308.15 K, x2 = 0.9054): 18.89 ± 0.26 mN/m | surface tension liquid-gas (308.15 K, x2 = 0.9503): 18.77 ± 0.26 mN/m | mass density (308.15 K, x2 = 0.05): 800.26 ± 0.59 kg/m3 | mass density (308.15 K, x2 = 0.0976): 792.98 ± 0.59 kg/m3 | mass density (308.15 K, x2 = 0.3197): 759.64 ± 0.6 kg/m3 | mass density (308.15 K, x2 = 0.3943): 748.86 ± 0.6 kg/m3 | mass density (308.15 K, x2 = 0.5088): 732.83 ± 0.61 kg/m3 | mass density (308.15 K, x2 = 0.6171): 718.13 ± 0.62 kg/m3 | mass density (308.15 K, x2 = 0.7045): 706.64 ± 0.63 kg/m3 | mass density (308.15 K, x2 = 0.808): 693.59 ± 0.64 kg/m3 | mass density (308.15 K, x2 = 0.9072): 681.51 ± 0.65 kg/m3
